Laboratory results reported in US20080171764A1, “METHODS FOR PREVENTING, MANAGING, AND REVERSING DISEASE CAUSED BY INFLAMMATION MEDIATED VASCULAR LESIONS” (priority 2007, published 2008).

What was measured:
[1] = sirolimus whole blood pharmacokinetics in apoE-/- mice (LC-MS/MS); format: in vivo; settings: i.p. daily, 0.5, 1.0 and 4.0 mg/kg
Protocol: (§1) Upon initiation of the pro-atherogenic diet and osmotic mini-pump implantation, mice were randomly assigned to four groups; namely, vehicle control, rapamycin or sirolimus 0.5 mg/kg, sirolimus 1.0 mg/kg and sirolimus 4.0 mg/kg body weight. The defined amount of sirolimus was dissolved in ethanol, brought up in a vehicle comprising 0.2 percent Sodium carboxymethylcellulose and 0.25 percent tween 80) and administrated to mice (i.p., daily).
Sirolimus was quantitated using liquid-liquid extraction and reverse-phase liquid chromatography mass spectrometry (LC-MS/MS). Briefly, 100 μl of mouse whole blood sample underwent protein precipitation with 5 percent Methanol/Zinc sulfate solution containing the internal standard ascomycin. After centrifugation of the resulting solution, the liquid mixture proceeded with liquid-liquid extraction with 1-chlorobutane. The combined organic extract was then blown down to dryness and reconstituted with 50:50 Methanol:20 mM ammonium acetate solution. The samples were analyzed on API-5000 using C18 reverse-phase chromatography in Multiple Reaction Monitoring (MRM) mode using atmospheric pressure chemical ionization (ApCI) approach. The calibration standard curve results for sirolimus in mouse whole blood were acceptable from 0.5 ng/ml to 10,000 ng/ml with correlation coefficient of 0.998. […]

apoE−/− mice [2] = assay: health status, body weight and re-suturing incidence post mini-pump surgery; format: in vivo
Description: (§2) ApoE^−/− mice (backcrossed ten times to the C57BL/6 background) were purchased from The Jackson Laboratory. The mice were kept on a twelve-hour light/twelve-hour dark regimen upon arrival. All animal experiments were approved by the IACUC of the Consumer & Personal Product Worldwide, in accordance with AAALAC guidelines. Eight week old, male apoE^−/− mice were fed a normal mouse-chow diet (RP5001; PMI Feeds Inc., St. Louis, Mo.) and acclimated for one week before switching to a pro-atherogenic high fat, high cholesterol, diet (“Western diet”, 21% fat, 0.2% cholesterol, diet No. 88137, Harlan-Teklad, Madison, Wis.) for four weeks.
(§3) Upon initiation of the pro-atherogenic diet, Alzet osmotic mini-pumps (Model 2004; ALZA Scientific Products, Mountain View, Calif.) were implanted into the apoE^−/− mice subcutaneously. The mini-pumps were loaded with angII (EMD Biosciences, San Diego, Calif.) at the delivery rate of 1,000 ng/min/kg for twenty-eight days. The mice were anesthetized using isoflurane for the implantation of the mini-pumps. Small incisions in the lower back of the neck were made and the mini-pumps were inserted into the subcutaneous space of the mice. The incisions were then closed using sterile staplers. Triple antibiotic ointment was applied to each incision post surgery. The mice on the high fat, high cholesterol diet were sacrificed by CO2 inhalation twenty-eight days post mini-pump implantation as is explained in detail subsequently.
as §1
The data is depicted as re-suturing incedince post surgery per group size. A clear increase of the suture index is observed in response to sirolimus administration in a dose dependent manner.

[3] = plasma lipids (total cholesterol, triglycerides, LDL and HDL cholesterol); format: in vivo, mice
Description: as §2
Upon initiation of the pro-atherogenic diet, Alzet osmotic mini-pumps (Model 2004; ALZA Scientific Products, Mountain View, Calif.) were implanted into the apoE^−/− mice subcutaneously. The mini-pumps were loaded with angII (EMD Biosciences, San Diego, Calif.) at the delivery rate of 1,000 ng/min/kg for twenty-eight days. The mice were anesthetized using isoflurane for the implantation of the mini-pumps. […]
Plasma triglyceride and total cholesterol levels were determined via an automated enzymatic technique (Equal Diagnostic Inc., Exton, Pa.). […] Aliquots of mouse plasma (100 μl) were injected onto the column, separated with a buffer containing 0.15 M NaCl, 0.01 M Na2HPO4, and 0.1 mM EDTA (pH 7.5) at a flow rate of 0.5 mL/min, and analyzed for lipids.

apoE−/− mice [4] = assay: atherosclerosis quantitation, en face surface lesion analysis (Sudan IV), 4-week study; format: in vivo; settings: 1.0 mg/kg ip once daily, vehicle 12.9±1.8%, P<0.0005
Description: ApoE^−/− mice (backcrossed ten times to the C57BL/6 background) were purchased from The Jackson Laboratory. The mice were kept on a twelve-hour light/twelve-hour dark regimen upon arrival. All animal experiments were approved by the IACUC of the Consumer & Personal Product Worldwide, in accordance with AAALAC guidelines. Eight week old, male apoE^−/− mice were fed a normal mouse-chow diet (RP5001; PMI Feeds Inc., St. Louis, Mo.) and acclimated for one week before switching to a pro-atherogenic high fat, high cholesterol, diet (“Western diet”, 21% fat, 0.2% cholesterol, diet No. 88137, Harlan-Teklad, Madison, Wis.) for four weeks. […]
As stated above, the mice were sacrificed by CO2 inhalation and bled from the abdominal vena cava. […] Atherosclerosis quantitation was assessed using two independent methods: “en face” surface lesion analysis and aortic root analysis. […] The extent of atherosclerosis is expressed as the percent of the aortic surface area covered by lesions. Aortic root analysis provided a second method verifying atherosclerosis quantitation. Briefly, alternate 8-μm frozen sections covering 300 μm of the proximal aorta, starting at the aortic sinus, were stained for atherosclerotic lesions with oil red O. Images of oil red O-stained aortic root sections were captured and analyzed using Image-Pro 6.0 analysis software. […]

apoE−/− mice [5] = assay: abdominal aortic adventitia lesion / AAA analysis (incidence, severity, diameter); format: in vivo
Description: as §2
as §3, with “subsequently. […]” for “subsequently.”
The abdominal aorta was subjected to abdominal aortic adventitia lesion analysis. […] Classification of the adventitia lesions was determined according to the scale based on the gross appearance of the aorta reported by Daugherty et al. Briefly, I: Dilated lumen in the supra-renal region of the aorta with no thrombus; II: Remodeled tissue in the supra-renal region that frequently contains thrombus; III: A pronounced bulbous form of type II that contains thrombus; IV: A form in which there are multiple adventitia lesions containing thrombus, some overlapping, in the suprarenal area of the aorta.

apoE−/− mice [6] = assay: second study: established lesions, 8 weeks angII infusion and proatherogenic diet, en face analysis; format: in vivo; settings: 1.0 mg/kg ip once daily for last 4 of 8 weeks; vehicle 37.6±2.7%, P<0.0001
Protocol: As stated above, the mice were sacrificed by CO2 inhalation and bled from the abdominal vena cava. The aortas were perfusion-fixed and post-fixed in 4 percent paraformaldehyde. Atherosclerosis quantitation was assessed using two independent methods: “en face” surface lesion analysis and aortic root analysis. The aortic arch and thoracic aorta (defined as above the last inter-costal artery) was subjected to “en face” analysis. Briefly, the aorta with major branches (left common carotid artery, right common carotid artery, left subclavian artery) was opened up. The lipid deposition in the inner aortic wall was stained in Sudan IV buffer. […] The extent of atherosclerosis is expressed as the percent of the aortic surface area covered by lesions. Aortic root analysis provided a second method verifying atherosclerosis quantitation. Briefly, alternate 8-μm frozen sections covering 300 μm of the proximal aorta, starting at the aortic sinus, were stained for atherosclerotic lesions with oil red O. Images of oil red O-stained aortic root sections were captured and analyzed using Image-Pro 6.0 analysis software. All samples were coded by one investigator and analyzed by another investigator who is completely blinded to the codes. […]

In the case of `CO[C@H]1C[C@@H]2CC[C@@H](C)[C@@](O)(O2)C(=O)C(=O)N2CCCC[C@H]2C(=O)O[C@H]([C@H](C)C[C@@H]2CC[C@@H](O)[C@H](OC)C2)CC(=O)[C@H](C)/C=C(\C)[C@@H](O)[C@@H](OC)C(=O)[C@H](C)C[C@H](C)/C=C/C=C/C=C/1C` [sirolimus], the “time of peak whole blood drug level post injection” value [1] is reported as 1 h, the “whole blood drug level at 24 hours” value ([1]; 24 hours post injection) is reported as “trace level” and the “incidence of re-suturing post surgery for mini-pump implantation (wound healing)” value (apoE−/− mice [2]; 0.5, 1.0 and 4.0 mg/kg i.p. daily) is reported as “increased incidence of re-suturing”. For the same compound, the body weight (apoE−/− mice [2]; all 3 sirolimus treated groups vs vehicle control) was “trend of decreased body weight”, the health status (apoE−/− mice [2]; apoE−/− mice, i.p. daily, 0.5, 1.0 and 4.0 mg/kg, 4 weeks) was “not overtly affected” and the “elevation of LDL cholesterol” value ([3]; all sirolimus treated mice vs vehicle control) was over 60%. For the same compound, the plasma triglyceride ([3]; regardless of the dosage employed) was “trend of elevated triglyceride”, the “atherosclerotic plaque area (en face analysis) at 4 weeks” value (apoE−/− mice [4]) was 3.1±0.4% and the “incidence of abdominal aortic adventitia lesion” value (apoE−/− mice [5]; 1 of 22 mice receiving sirolimus, vehicle control 30 percent (3 of 10)) was 4.5%. The “severity of AAA as determined by aortic diameter” value (apoE−/− mice [5]; vehicle 1.38±0.25 mm, P<0.005) was 0.74±0.02 mm, the “incidence of AAA” value (apoE−/− mice [5]; vehicle 32%, P<0.005) was 0% and the “atherosclerotic plaque area (en face analysis) of established lesions at 8 weeks” value (apoE−/− mice [6]) was 18.4±2.3%.
